Source: US11466044B2 (WAYNE STATE UNIVERSITY, priority 2017, dated 2022)
Where two headings read alike, the source gives them in different places.

What was measured:
[1] = test system: Klebsiella pneumonia AG215; assay: MIC by broth microdilution, Klebsiella pneumonia; assay type: cell-based; conditions: strain AG215 Klebsiella pneumonia
N. gonorrhoeae = assay: Disk diffusion, N. gonorrhoeae; assay type: cell-based; conditions: 25 nmol
MRSA = assay: MIC by broth microdilution, MRSA isolates; assay type: cell-based
M. smegmatis SZ380 = assay: MIC by broth microdilution, M. smegmatis
P aeruginosa = assay: MIC by broth microdilution, P aeruginosa isolates; assay type: cell-based, Pseudomonas aeruginosa
[2] = test system: rabbit reticulocyte ribosomes; assay: in-vitro translation assay, rabbit reticulocyte ribosomes; assay type: biochemical; conditions: mammalian cytosolic ribosomes (rabbit)
M. abscessus = assay: MIC by broth microdilution, M. abscessus; assay type: cell-based
[3] = test system: A1555G mutant mitochondrial ribosome (human chimeric); assay: in-vitro translation assay, human chimeric ribosomes, A1555G mutant mitochondrial decoding site; assay type: biochemical; conditions: human mitochondrial decoding site with A1555G point mutation; read-out: IC50 Mitoch. A1555G
Source text: (§1) The antiribosomal activity of these compounds was investigated with cell-free translation assays using both wild type bacterial ribosomes and hybrid ribosomes carrying eukaryotic decoding A sites enabling the prediction of selectivity.

[4] = test system: E coli carrying specific resistance determinants; assay: MIC by broth microdilution, E coli carrying specific resistance determinants; assay type: cell-based
[5] = test system: Acinetobacter baumannii pittii AG225; assay: MIC by broth microdilution, Acinetobacter baumannii; assay type: cell-based; conditions: strain AG225 Acinetobacter baumannii pittii
E coli wild type = assay: MIC by broth microdilution, wild type E coli; assay type: cell-based
[6] = test system: wild type bacterial ribosomes; assay: in-vitro translation assay, bacterial ribosomes; assay type: biochemical
Source text: as §1

[7] = test system: Enterobacter cloacae AG290; assay: MIC by broth microdilution, Enterobacter cloacae; assay type: cell-based; conditions: strain AG290 Enterobacter cloacae
[8] = test system: mitochondrial ribosome (human chimeric); assay type: biochemical
Source text: as §1

[9] = test system: cytosolic ribosome (human chimeric); assay type: biochemical
Source text: as §1

NC[C@@H]1O[C@H](O[C@H]2[C@@H](O)[C@H](O[C@@H]3[C@@H](O)[C@H](N)C[C@H](N)[C@H]3O[C@H]3O[C@H](CN)[C@@H](O)[C@H](O)[C@H]3N)O[C@@H]2CO)[C@H](N)[C@@H](O)[C@@H]1O [neomycin, Neomycin B, reference compound]
0.25 µg/mL: MIC AG038 MRSA (MRSA; clinical isolate AG038) | MIC MRSA AG038 (MRSA; clinical isolate AG038, Table 1 (Example 3))
35 µM: IC50 ([9]; cytosolic, Table 3 (Example 1), read-out: IC50 Cyt) | IC50 ([9]; cytosolic, Table 3 (Example 2), read-out: IC50 Cyt) | IC50 ([9]; cytosolic, Table 4 (Example 3), read-out: IC50 Cyt) | IC50 ([9]; ribosomes with a human cytosolic decoding site, read-out: IC50 Cytosolic)
64 μg/ml: MIC pH422 APH(3′)-II ([4]; E. coli strain pH422, APH(3′)-II) | MIC pH422 E. coli APH(3′)-II ([4]; engineered strain pH422 APH(3′)-II, Table 2 (Example 4)) | MIC50 E coli pH422 APH(3′)-II ([4]; pH422 APH(3′)-II, Table 2B (Example 2))
0.25 to 0.5 µg/mL: MIC50 E coli AG103 armA ([4]; AG103 armA, Table 2B (Example 2)) | MIC AG103 armA ([4]; E. coli strain AG103, armA) | MIC E coli AG006 Wild type (E coli wild type; AG006 Wild type, Table 2 (Example 3))
49 µM: IC50 [2]
16 µg/mL: MIC M. abscessus ATCC 19977 WT (M. abscessus; ATCC 19977 WT, Table 5 (Example 3)) | MIC M. abscessus ATCC (M. abscessus; ATCC, Table 4 (Example 3)) | MIC M. abscessus Clin. Isol. (M. abscessus; Clin. Isol., Table 4 (Example 3)) | MIC M. abscessus clinical isolate (M. abscessus; clinical isolate, Table 5 (Example 3))
4 to 8 µg/mL: MIC50 E coli AG036 ANT(4′,4″) ([4]; Table 2B (Example 2)) | MIC ANT(4′) ([4]; ANT(4′), Table 3 (Example 2)) | MIC AG036 ANT(4′,4′′) ([4]; E. coli strain AG036, ANT(4′,4′′))
64 µg/mL: MIC APH(3′)-II ([4]; Table 3 (Example 1)) | MIC APH(3′)-II ([4]; Table 3 (Example 2)) | MIC AG166 E. coli APH(3′)-II ([4]; clinical isolate AG166 APH(3′)-II, Table 2 (Example 4))
4 µg/mL: MIC M. abscessus engineered Δeis2 (M. abscessus; engineered Δeis2, Table 5 (Example 3)) | MIC AAC(6′) ([4]; AAC(6′), Table 3 (Example 2)) | MIC50 E coli AG07 AAC(3) ([4]; AG07 AAC(3), Table 2A (Example 2)) | MIC E coli AG001 (E coli wild type; clinical isolate AG001, Table 1 (Example 3))
>64 μg/ml: MIC E. coli pH434 AAC(2′)-Ib ([4]; pH434 AAC(2′)-Ib, Table 5 (Example 3))
1 to 2 µg/mL: MIC50 MRSA AG38 (MRSA; strain AG38, Table 1 (Example 2)) | MIC AG225 A. baumannii [5] | MIC50 E coli AG55 (E coli wild type; strain AG55, Table 1 (Example 2))
low: Target specificity bacterial vs. Mitochondrial ([8]; relative target specificity, bacterial vs. human mitochondrial)
>128 μg/ml: MIC pH421 APH(3)-I ([4]; E. coli strain pH421, APH(3)-I) | MIC pH421 E. coli APH(3′)-I ([4]; engineered strain pH421 APH(3′)-I, Table 2 (Example 4)) | MIC50 E coli pH421 APH(3′)-I ([4]; pH421 APH(3′)-I, Table 2B (Example 2))
32-64 μg/ml: MIC pH423 APH(3′)-VI ([4]; E. coli strain pH423, APH(3′)-VI) | MIC pH423 E. coli APH(3′)-VI ([4]; engineered strain pH423 APH(3′)-VI, Table 2 (Example 4)) | MIC50 E coli pH423 APH(3)-VI ([4]; pH423 APH(3)-VI, Table 2B (Example 2))
32 to 64 µg/mL: MIC50 P aeruginosa AG32 (P aeruginosa; strain AG32, Table 1 (Example 2)) | MIC APH(3)-VI ([4]; APH(3)-VI, Table 3 (Example 1)) | MIC APH(3′)-VI ([4]; APH(3′)-VI, Table 3 (Example 2))
4 μg/ml: MIC pH415 AAC(6′)-II ([4]; E. coli strain pH415, AAC(6′)-II) | MIC50 E coli pH415 AAC(6′)-II ([4]; pH415 AAC(6′)-II, Table 2B (Example 2))
>128 µg/mL: MIC50 P aeruginosa AG33 (P aeruginosa; strain AG33, Table 1 (Example 2)) | MIC50 P aeruginosa AG86 (P aeruginosa; strain AG86, Table 1 (Example 2))
2 μg/ml: MIC pH414 AAC(6′)-I ([4]; E. coli strain pH414, AAC(6′)-I) | MIC50 E coli pH414 AAC(6′)-I ([4]; pH414 AAC(6′)-I, Table 2B (Example 2))
1 μg/ml: MIC pH432 ANT(4′) ([4]; E. coli strain pH432, ANT(4′)) | MIC50 E coli pH432 ANT(4′) ([4]; pH432 ANT(4′), Table 2B (Example 2)) | MIC pH430 WT (E coli wild type; E. coli strain pH430, WT) | MIC pH430 E. coli WT (E coli wild type; engineered strain pH430 WT, Table 2 (Example 4)) | MIC50 E coli pH430 WT (E coli wild type; pH430 WT, Table 2B (Example 2))
128 µg/mL: MIC AG039 MRSA AAC(6′)-I ANT(4′)-I (MRSA; clinical isolate AG039, AAC(6′)-I ANT(4′)-I) | MIC MRSA AG039 (MRSA; clinical isolate AG039, Table 1 (Example 3)) | MIC AG042 MRSA AAC(6′)-I ANT(4′)-I APH(2′) (MRSA; clinical isolate AG042, AAC(6′)-I ANT(4′)-I APH(2′)) | MIC MRSA AG042 (MRSA; clinical isolate AG042, Table 1 (Example 3)) | MIC50 MRSA AG39 (MRSA; strain AG39, Table 1 (Example 2)) | MIC50 MRSA AG42 (MRSA; strain AG42, Table 1 (Example 2))
0.4 µM: IC50 [3]
8 µg/mL: MIC AG031 P. aer. APH(3′)-II (P aeruginosa; clinical isolate AG031, APH(3′)-II) | MIC AG032 P. aer. APH(3′)-II (P aeruginosa; clinical isolate AG032, APH(3′)-II) | MIC E. coli AAC(2′) AG106 ([4]; AAC(2′) AG106, Table 4 (Example 3)) | MIC50 E coli AG09 AAC(6′) ([4]; AG09 AAC(6′), Table 2A (Example 2)) | MIC E. coli AG106 AAC(2′)-Ia ([4]; AG106 AAC(2′)-Ia, Table 5 (Example 3)) | MIC E coli AG106 AAC(2′) ([4]; AG106 AAC(2′), Table 2 (Example 3))
1 µg/mL: MIC AG003 E. coli AAC(3)-II ([4]; clinical isolate AG003, AAC(3)-II) | MIC50 E coli BM13 (AG06) wt (E coli wild type; BM13 (AG06) wt, Table 2A (Example 2)) | MIC WT (E coli wild type; Table 3 (Example 1)) | MIC WT (E coli wild type; Table 3 (Example 2)) | MIC E. coli WT (E coli wild type; Table 4 (Example 3)) | MIC AG001 E. coli WT (E coli wild type; clinical isolate AG001, WT) | MIC E coli AG003 (E coli wild type; clinical isolate AG003, Table 1 (Example 3)) | MIC AG055 E. coli WT (E coli wild type; clinical isolate AG055, WT) | MIC E coli AG055 (E coli wild type; clinical isolate AG055, Table 1 (Example 3)) | MIC AG160 E. coli WT (E coli wild type; clinical isolate AG160 WT, Table 2 (Example 4)) | MIC50 E coli AG03 (E coli wild type; strain AG03, Table 1 (Example 2)) | MIC AG290 E. cloacae [7]
>64 μg/mL: MIC E. coli AAC(2′) pH434 ([4]; AAC(2′) pH434, Table 4 (Example 3))
0.5 to 1 µg/mL: MIC MRSA AG044 (MRSA; clinical isolate AG044, Table 1 (Example 3)) | MIC50 MRSA AG44 (MRSA; strain AG44, Table 1 (Example 2)) | MIC E coli AG104 Wild type (E coli wild type; AG104 Wild type, Table 2 (Example 3)) | MIC E. coli WT (E coli wild type; Table 5 (Example 3)) | MIC AG212 E. coli (E coli wild type; strain AG212 E. coli (ATCC25922))
>256 µg/mL: MIC50 E coli AG037 APH(3′,5″) ([4]; AG037 APH(3′,5″), Table 2A (Example 2))
2 µg/mL: MIC50 E coli AG105 AAC(2′) ([4]; AG105 AAC(2′), Table 2A (Example 2)) | MIC50 E coli AG01 (E coli wild type; strain AG01, Table 1 (Example 2))
0.5 µg/mL: MIC AG215 K. pneumon [1] | MIC M. smegmatis SZ380 WT (M. smegmatis SZ380; SZ380 WT, Table 5 (Example 3)) | MIC SZ380 M. smegmatis (M. smegmatis SZ380; strain SZ380 Mycobacterium smegmatis) | MIC50 E coli AG103 armA ([4]; AG103 ArmA, Table 2A (Example 2))
>64 µg/mL: MIC50 E coli AG037 APH(3′)-III ([4]; AG037 APH(3′)-III, Table 2B (Example 2)) | MIC APH(3′)-I ([4]; APH(3′)-I, Table 3 (Example 1)) | MIC APH(3′)-III ([4]; APH(3′)-III, Table 3 (Example 1)) | MIC AG037 APH(3′)-III ([4]; E. coli strain AG037, APH(3′)-III) | MIC AG163 E. coli APH(3′)-I ([4]; clinical isolate AG163 APH(3′)-I, Table 2 (Example 4)) | MIC AG037 E. coli APH(3′)-III ([4]; engineered strain AG037 APH(3′)-III, Table 2 (Example 4))
0.04 µM: IC50 ([6]; Mycobacterium smegmatis ribosomes, read-out: IC50 Bacterial) | IC50 ([6]; bacterial ribosome, Table 3 (Example 1), read-out: IC50 Bac) | IC50 ([6]; bacterial ribosome, Table 3 (Example 2), read-out: IC50 Bac) | IC50 ([6]; bacterial ribosome, Table 4 (Example 3), read-out: IC50 Bac)
<8 mm: Disk diffusion 25 nmol N. gonorrhoeae (N. gonorrhoeae)
0.25-0.5 μg/ml: MIC E. coli pGB2armA armA ([4]; pGB2armA armA, Table 5 (Example 3))
32 µg/mL: MIC50 P aeruginosa AG31 (P aeruginosa; strain AG31, Table 1 (Example 2)) | MIC AG220 P. aerugin (P aeruginosa; strain AG220 Pseudomonas aeruginosa ATCC27853) | MIC50 E coli AG036 ANT(4′,4″) ([4]; Table 2A (Example 2))
4.3 µM: IC50 ([8]; mitochondrial, Table 3 (Example 1), read-out: IC50 Mit) | IC50 ([8]; mitochondrial, Table 3 (Example 2), read-out: IC50 Mit) | IC50 ([8]; mitochondrial, Table 4 (Example 3), read-out: IC50 Mit) | IC50 ([8]; ribosomes with a human mitochondrial decoding site, read-out: IC50 Mitoch.)
